The values below are quoted from earlier work in article PMC2913283 (Bioconjugate chemistry, 2010).

The conditions of this data set: initial studies.

“Diethylenetriaminepenatacetic acid-(DTPA-Al^18F) complexes”: the stability in vitro result is listed as “not stable in vitro”.
